Data on 1 compound can be found in patent US6177405A, “Cyclic analogs of tuftsin” (priority 1992, dated 2001).

Holding throughout (assay type): cell-based
Data set [1] relates to human NK cells. As to the kind of experiment: Tumor cell cytotoxicity assay by human NK cells (4 hour 51Cr release, K-562 targets). As to conditions: effector:target ratios of 25:1 and 50:1, peptide concentration 1 μg/ml, FIG. 3. How it is done: Tumor Cell Cytotoxicity Assay by Human NK Cells
Heparinized blood was layered over Leukoprep tube (30 ml per tube), and centrifuged. The mononuclear cells at interphase were collected, washed with HBSS, suspended in RPMI-1640 medium with 10% FBS (15 ml per 30 ml starting blood), plated on Petri dishes, and incubated for 1 hour. Non-adherent cells were collected, suspended in RPMI-1640 medium with 5% FBS, and adjusted to 1×10^6 /ml for 4 hour ^51 Cr release assay. The viability of this NK cell enriched fraction was assessed with trypan blue.
The tumor target cells, K-562, were harvested from culture, washed with RPMI-1640 medium with 5% FBS, and centrifuged. Pelleted cells of 2×10^6 K-562 were suspended into 0.2 ml of 100 μCi of ^51 CrO4 in saline, and labelled for 90 min in the incubator. The labelled target cells were washed with RPMI-1640 medium with 5% FBS, suspended in the same medium, and adjusted to a suspension of 2×10^5 /ml. […] Filters containing radioactive supernatants were counted on a γ counter, and counts per minutes (cpm) were recorded. Percent cytotoxicity (% specific lysis) was calculated by the following formula: […]
Spontaneous cpm was obtained by incubating the tumor target cells alone in the medium. Maximum cpm was obtained by releasing the radioactivity from the target cells by treatment with Triton X-100. […]

Data set [2] deals with THP-1 (human acute monocytic leukemia) cell line. As to the kind of experiment: Thymidine incorporation assay (growth stimulation effect). As to conditions: THP-1 cells, at 0.001 and 10 μg/ml; FIG. 2. As for the experimental part: Thymidine Incorporation Assay
THP-1 (a human acute monocytic leukemia line) cells were subcultured in RPMI-1640 medium with 10% FBS. Next day THP-1 cells were collected, washed with RPMI-1640 medium with 2% FBS, and plated into well with peptide (1×10^6 cell in 1 ml). The plate was incubated for 18 hours. ^3 H-thymidine (0.1 μCi per well) was then introduced. The plate was incubated for another hour. The cells were collected into a tube using 1 ml of cold HBSS. After washing the cells twice, the cells were mixed with 0.2 ml of 0.1% sodium dodecyl sulfate, and transferred to a liquid scintillation vial for determination of radioactivity. The mean values from triplicates were used to calculate percent increase over control mean value.
To examine the growth stimulating effect of peptides, a thymidine incorporation experiment was performed using THP-1 (human acute monocytic leukemia) cell line.
For orientation: Dividing cells build labelled thymidine or BrdU into new DNA.

For data set [3], the system named is Human polymorphonuclear leukocytes (PMNs). As to the kind of experiment: Phagocytosis assay (fluorescent microspheres engulfed per PMN). As for the experimental part:
Phagocytosis Assay Human polymorphonuclear leukocytes (PMNs) were prepared from venous blood of healthy donors. Heparinized blood was mixed with dextran and kept at 37° C. for 1 hour. The leukocyte-rich plasma was collected and centrifuged. The resulting pellet was washed with Hank's balanced salt solution (HBSS). The pellet was then suspended into HBSS, layered over Lymphocyte Separation Medium (LSM) and centrifuged. The sedimented cells were washed with HBSS. Contaminant erythrocytes were lysed by suspending the cells in sterile water for 15 seconds. The isotonicity was then restored by adding 10× HBSS. After centrifuging, the PMNs were washed with HBSS, suspended in the same medium, counted, and adjusted to 1×10^6 viable cells/ml (viability>95% by trypan blue dye exclusion). Cells (0.5×10^6 /well) were plated in 24 well plate and placed in a 37° C. CO2 incubator for 30 min to form a monolayer. Thereafter the supernatant was aspirated. Tuftsin or analog in 250 μl HBSS and 2.5×10^7 fluorescent microspheres (2 μm diameter) in 250 μl HBSS, were added to each well resulting in a particle to PMN ratio of 50:1, mixed, and incubated for 15 min. The supernatant was then quickly aspirated and each well washed with HBSS. One ml of trypsin (0.25% in saline) was added to each well and the plate incubated for 15 min to detach the cells and remove non-engulfed particles associated on the surface of PMN. The cells were transferred, layered over 2 ml fetal bovine serum (FBS), and centrifuged. The supernatant containing free particles were removed. The cell pellet was suspended, fixed in 2% paraformaldehyde, and plated again into a well. After 10 min, particles engulfed per PMN were counted under a microscope (100 cells per well). The mean values from triplicates were used to calculate percent phagocytosis increase over control mean value. Using purified cyclo[[…]] (SEQ ID no. 1) as an example, we have examined in vitro biological activities of this peptide. A phagocytosis assay was performed to compare the activity of cyclo[[…]] (SEQ ID no. 1) to that of tuftsin. The optimum concentration of tuftsin in this assay is 5 μg/ml. However, the optimum concentration for cyclo[[…]]

Structures are written as SMILES. Residues, ends and D or L forms follow the SMILES beside them.

Consider `C[C@@H](O)[C@@H]1NC(=O)CNC(=O)[C@H](CCCNC(=N)N)NC(=O)[C@@H]2CCCN2C(=O)[C@H](CCCCN)NC1=O` [cyclo[Thr-Lys-Pro-Arg-Gly]] (cyclo(GTKPR)), for which the “enhancement of NK tumor cell cytotoxicity compared with tuftsin” value in data set [1] is on record as “significantly greater cytotoxicity”. The “growth stimulating activity (3H-thymidine incorporation) compared with tuftsin” value in data set [2] was “significantly greater activities than tuftsin”. The “extent of phagocytosis compared with tuftsin at 5 μg/ml” value in data set [3] (0.1 μg/ml of cyclic peptide vs 5 μg/ml of tuftsin) is given as “no significant difference”. Moreover, in data set [3] (at lower concentrations of 0.01 and 0.1 μg/ml, Student t-test, FIG. 1), the “potency in phagocytosis assay compared with tuftsin” value is listed as “significantly superior potency over tuftsin”. The “optimum concentration in phagocytosis assay” value in data set [3] (human PMNs, 15 min incubation, particle to PMN ratio 50:1, FIG. 1) was found to be 0.1 µg/mL. In addition, the “optimum concentration, fold lower than tuftsin” value in data set [3] (phagocytosis assay, human PMNs) is listed as 50 fold.
